According to patent US20250025451A1, “TREATMENT OF CANCER WITH KDM4 INHIBITORS” (Celgene Corporation, priority 2021, published 2025):

Test system: 301 cancer cell lines from different tumor types
Test: 2D cell viability inhibition assay, broad cancer cell line panel (OncoPanel; CellTiter-Glo)
Type: cell-based
Parameters: key to Emax: % of DMSO control (minimum response over dose range); AUC: scale not given here
Details: for AUC / Emax: 168 hours; for Emax: in % (unit assumed)
Method: In a larger screening study, compound 1 was evaluated across a broad cancer cell line panel (OncoPanel; HD Biosciences) composed of 301 cancer cell lines from different tumor types.
2D cell viability inhibition assays were performed in multiwell plates seeded with cells from the panel. After seeding, the plates were cultured overnight in a humidified incubator at 37° C. to promote adherence. Assays were initiated in individual wells by adding either DMSO as a vehicle control, growth media as a blank, or serially diluted compound 1 (10 μM to 0.0005 μM with 1:3 serial dilution). Cultures were incubated for 168 hours after which the number of viable cells in each test well was assessed using the CellTiter-Glo® Luminescent Cell Viability Assay. Luminescence readouts were performed using an EnVision® Multilabel Reader and the compound 1 readouts were normalized to the DMSO control readouts, expressed as a percent of the control. Outliers were flagged out by visual inspection. Percent of control was plotted against the corresponding compound 1 concentration and the absolute IC50 value was determined using four-parameter logistic non-linear regression as the concentration where inhibition was 50% of the control. […] Emax was recorded as the minimum in y with the compound dose range. […] The sensitive/moderate/resistant calls for each cell line was determined by visually inspecting the resulting clustering dendrogram. All the analyses were done in R Core Team.

[1] = 168 h, HUH28 (biliary tract, NS)
[2] = 168 h, KG1 (haematopoietic and lymphoid tissue, acute myeloid leukaemia)
[3] = 168 h, KURAMOCHI (ovary, undifferentiated carcinoma)
[4] = 168 h, NMCG1 (central nervous system, NS)
[5] = 168 h, T24 (urinary tract, transitional cell carcinoma)
[6] = 168 h, TE1 (oesophagus, squamous cell carcinoma)
[7] = 168 h, TE8 (oesophagus, squamous cell carcinoma)
[8] = BT20 (breast, ductal carcinoma)
[9] = BT474 (breast, ductal carcinoma)
[10] = C2BBE1 (large intestine, adenocarcinoma)
[11] = CAL27 (upper aerodigestive tract, squamous cell carcinoma)
[12] = CALU1 (lung, squamous cell carcinoma)
[13] = CAPAN2 (pancreas, ductal carcinoma)
[14] = CCFSTTG1 (central nervous system, astrocytoma)
[15] = DAOY (central nervous system, NS)
[16] = DMS53 (lung, small cell carcinoma)
[17] = HCC38 (breast, ductal carcinoma)
[18] = HCC1419 (breast, ductal carcinoma)
[19] = HCC1937 (breast, ductal carcinoma)
[20] = Homo sapiens, A204, 168 h, A204 (soft tissue, NS)
[21] = Homo sapiens, BT-20, 168 h, BT20 (breast, ductal carcinoma)
[22] = Homo sapiens, BT-474, 168 h, BT474 (breast, ductal carcinoma)
[23] = Homo sapiens, C2BBe1, 168 h, C2BBE1 (large intestine, adenocarcinoma)
[24] = Homo sapiens, CAL-27, 168 h, CAL27 (upper aerodigestive tract, squamous cell carcinoma)
[25] = Homo sapiens, CCF-STTG1, 168 h, CCFSTTG1 (central nervous system, astrocytoma)
[26] = Homo sapiens, Calu-1, 168 h, CALU1 (lung, squamous cell carcinoma)
[27] = Homo sapiens, Calu-3, 168 h, CALU3 (lung, adenocarcinoma)
[28] = Homo sapiens, Capan-2, 168 h, CAPAN2 (pancreas, ductal carcinoma)
[29] = Homo sapiens, DMS-53, 168 h, DMS53 (lung, small cell carcinoma)
[30] = Homo sapiens, Daoy, 168 h, DAOY (central nervous system, NS)
[31] = Homo sapiens, G-361, 168 h, G361 (skin, NS)
[32] = Homo sapiens, HCC38, 168 h, HCC38 (breast, ductal carcinoma)
[33] = Homo sapiens, HCC827, 168 h, HCC827 (lung, adenocarcinoma)
[34] = Homo sapiens, HCC1419, 168 h, HCC1419 (breast, ductal carcinoma)
[35] = Homo sapiens, HCC1428, 168 h, HCC1428 (breast, NS)
[36] = Homo sapiens, HCC1937, 168 h, HCC1937 (breast, ductal carcinoma)
[37] = Homo sapiens, HT-144, 168 h, HT144 (skin, NS)
[38] = Homo sapiens, Hs 695T, 168 h, HS695T (skin, NS)
[39] = Homo sapiens, KYSE-70, 168 h, KYSE70 (oesophagus, squamous cell carcinoma)
[40] = Homo sapiens, Kasumi 1, 168 h, KASUMI1 (haematopoietic and lymphoid tissue, acute myeloid leukaemia)
[41] = Homo sapiens, Lu-99, 168 h, LU99 (lung, large cell carcinoma)
[42] = Homo sapiens, MDA-MB-157, 168 h, MDAMB157 (breast, ductal carcinoma)
[43] = Homo sapiens, MDA-MB-175-VII, 168 h, MDAMB 175 VII (breast, ductal carcinoma)
[44] = Homo sapiens, MDA-MB-231, 168 h, MDAMB231 (breast, NS)
[45] = Homo sapiens, MDA-MB-361, 168 h, MDAMB361 (breast, NS)
[46] = Homo sapiens, MDA-MB-415, 168 h, MDAMB415 (breast, NS)
[47] = Homo sapiens, MDA-MB-436, 168 h, MDAMB436 (breast, NS)
[48] = Homo sapiens, MDA-MB-468, 168 h, MDAMB468 (breast, NS)
[49] = Homo sapiens, Malme-3M, 168 h, MALME3M (skin, NS)
[50] = Homo sapiens, MeWo, 168 h, MEWO (skin, NS)
[51] = Homo sapiens, NCI-H441, 168 h, NCIH441 (lung, adenocarcinoma)
[52] = Homo sapiens, NCI-H596, 168 h, NCIH596 (lung, mixed adenosquamous carcinoma)
[53] = Homo sapiens, NCI-H1395, 168 h, NCIH1395 (lung, adenocarcinoma)
[54] = Homo sapiens, NCI-H1563, 168 h, NCIH1563 (lung, adenocarcinoma)
[55] = Homo sapiens, NCI-H1573, 168 h, NCIH1573 (lung, adenocarcinoma)

CC(C)c1ccc(N(C)c2ccc3c(c2)OCC[C@H]3CNc2cnccc2C(=O)O)cc1 [Compound 1, 3-({[(4R)-7-{methyl[4-(propan-2-yl)phenyl]amino}-3,4-dihydro-2H-1-benzopyran-4-yl]methyl}amino)pyridine-4-carboxylic acid]
EC50 (168 h, HS688AT (skin, NS)): ≥ 10 µM
IC50 (168 h, HS688AT (skin, NS)): ≥ 10 µM
EC50 (168 h, HS739T (breast, NS)): ≥ 10 µM
IC50 (168 h, HS739T (breast, NS)): ≥ 10 µM
EC50 (168 h, HS839T (skin, NS)): ≥ 10 µM
IC50 (168 h, HS839T (skin, NS)): ≥ 10 µM
EC50 (168 h, HS852T (skin, NS)): ≥ 10 µM
IC50 (168 h, HS852T (skin, NS)): ≥ 10 µM
EC50 [1]: ≥ 10 µM
IC50 [1]: ≥ 10 µM
EC50 [2]: ≥ 10 µM
IC50 [2]: ≥ 10 µM
EC50 [3]: ≥ 10 µM
IC50 [3]: ≥ 10 µM
EC50 [4]: ≥ 10 µM
IC50 [4]: ≥ 10 µM
EC50 (168 h, SKMEL31 (skin, NS)): ≥ 10 µM
IC50 (168 h, SKMEL31 (skin, NS)): ≥ 10 µM
EC50 [5]: ≥ 10 µM
IC50 [5]: ≥ 10 µM
EC50 [6]: ≥ 10 µM
IC50 [6]: ≥ 10 µM
EC50 [7]: ≥ 10 µM
IC50 [7]: ≥ 10 µM
AUC (A204 (soft tissue, NS)): 0.7136
Emax (A204 (soft tissue, NS)): 58.91
AUC [8]: 0.9117
Emax [8]: 78.79
AUC [9]: 0.7206
Emax [9]: 53.88
AUC [10]: 0.8303
Emax [10]: 59.34
AUC [11]: 0.8335
Emax [11]: 74.68
AUC [12]: 1.217
Emax [12]: 118.4694
AUC (CALU3 (lung, adenocarcinoma)): 0.7277
Emax (CALU3 (lung, adenocarcinoma)): 50.88
AUC [13]: 0.8808
Emax [13]: 75.02
AUC [14]: 0.879
Emax [14]: 78.9
AUC [15]: 0.9684
Emax [15]: 83.4
AUC [16]: 0.7426
Emax [16]: 49.07
AUC (G361 (skin, NS)): 1.044
Emax (G361 (skin, NS)): 89.52
AUC [17]: 0.9864
Emax [17]: 93.61
AUC (HCC827 (lung, adenocarcinoma)): 0.8814
Emax (HCC827 (lung, adenocarcinoma)): 74.84
AUC [18]: 0.7201
Emax [18]: 52.42
AUC (HCC1428 (breast, NS)): 0.7818
Emax (HCC1428 (breast, NS)): 59.9889
AUC [19]: 0.9094
Emax [19]: 80.9493
AUC (HS688AT (skin, NS)): 1.105
Emax (HS688AT (skin, NS)): 98.47
AUC (HS695T (skin, NS)): 0.9238
Emax (HS695T (skin, NS)): 74.11
AUC (HS739T (breast, NS)): 0.8686
Emax (HS739T (breast, NS)): 78.35
AUC (HS839T (skin, NS)): 1.097
Emax (HS839T (skin, NS)): 101.2434
AUC (HS852T (skin, NS)): 0.883
Emax (HS852T (skin, NS)): 78.51
AUC (HT144 (skin, NS)): 0.8912
Emax (HT144 (skin, NS)): 81.61
AUC (HUH28 (biliary tract, NS)): 0.9862
Emax (HUH28 (biliary tract, NS)): 92.15
EC50 [20]: ≥ 10 µM
IC50 [20]: ≥ 10 µM
EC50 [21]: ≥ 10 µM
IC50 [21]: ≥ 10 µM
EC50 [22]: ≥ 10 µM
IC50 [22]: ≥ 10 µM
EC50 [23]: ≥ 10 µM
IC50 [23]: ≥ 10 µM
EC50 [24]: ≥ 10 µM
IC50 [24]: ≥ 10 µM
EC50 [25]: ≥ 10 µM
IC50 [25]: ≥ 10 µM
EC50 [26]: ≥ 10 µM
IC50 [26]: ≥ 10 µM
EC50 [27]: ≥ 10 µM
IC50 [27]: ≥ 10 µM
EC50 [28]: ≥ 10 µM
IC50 [28]: ≥ 10 µM
EC50 [29]: ≥ 10 µM
IC50 [29]: ≥ 10 µM
EC50 [30]: ≥ 10 µM
IC50 [30]: ≥ 10 µM
EC50 [31]: ≥ 10 µM
IC50 [31]: ≥ 10 µM
EC50 [32]: ≥ 10 µM
IC50 [32]: ≥ 10 µM
EC50 [33]: ≥ 10 µM
IC50 [33]: ≥ 10 µM
EC50 [34]: ≥ 10 µM
IC50 [34]: ≥ 10 µM
EC50 [35]: ≥ 10 µM
IC50 [35]: ≥ 10 µM
EC50 [36]: ≥ 10 µM
IC50 [36]: ≥ 10 µM
EC50 [37]: ≥ 10 µM
IC50 [37]: ≥ 10 µM
EC50 [38]: ≥ 10 µM
IC50 [38]: ≥ 10 µM
EC50 [39]: ≥ 10 µM
IC50 [39]: ≥ 10 µM
EC50 [40]: ≥ 10 µM
IC50 [40]: ≥ 10 µM
EC50 [41]: ≥ 10 µM
IC50 [41]: ≥ 10 µM
EC50 [42]: ≥ 10 µM
IC50 [42]: ≥ 10 µM
EC50 [43]: ≥ 10 µM
IC50 [43]: ≥ 10 µM
EC50 [44]: ≥ 10 µM
IC50 [44]: ≥ 10 µM
EC50 [45]: ≥ 10 µM
IC50 [45]: ≥ 10 µM
EC50 [46]: ≥ 10 µM
IC50 [46]: ≥ 10 µM
EC50 [47]: ≥ 10 µM
IC50 [47]: ≥ 10 µM
EC50 [48]: ≥ 10 µM
IC50 [48]: ≥ 10 µM
EC50 [49]: ≥ 10 µM
IC50 [49]: ≥ 10 µM
EC50 [50]: ≥ 10 µM
IC50 [50]: ≥ 10 µM
EC50 [51]: ≥ 10 µM
IC50 [51]: ≥ 10 µM
EC50 [52]: ≥ 10 µM
IC50 [52]: ≥ 10 µM
EC50 [53]: ≥ 10 µM
IC50 [53]: ≥ 10 µM
EC50 [54]: ≥ 10 µM
IC50 [54]: ≥ 10 µM
EC50 [55]: ≥ 10 µM
IC50 [55]: ≥ 10 µM
